{"source": "PubChem BioAssay (NCI)", "assay_in_all_cases": "NCI tumour cell line growth inhibition, 48 h", "key": {"[1]": {"tested_on": "HOP-92 NSCLC"}, "[2]": {"tested_on": "SK-MEL-5 melanoma"}, "[3]": {"tested_on": "M14 melanoma"}, "[4]": {"tested_on": "K-562 leukemia"}, "[5]": {"tested_on": "SF-295 CNS"}, "[6]": {"tested_on": "OVCAR-3 ovarian"}, "[7]": {"tested_on": "LOX IMVI melanoma"}, "[8]": {"tested_on": "HCT-15 colon"}, "[9]": {"tested_on": "MALME-3M melanoma"}, "[10]": {"tested_on": "SN12C renal"}, "[11]": {"tested_on": "MDA-MB-435"}, "[12]": {"tested_on": "RXF 393 renal"}, "[13]": {"tested_on": "NCI-H460 lung"}, "[14]": {"tested_on": "MDA-MB-231 breast"}, "[15]": {"tested_on": "HT29 colon"}, "[16]": {"tested_on": "BT-549 breast"}, "[17]": {"tested_on": "ACHN renal"}, "[18]": {"tested_on": "U251 CNS"}, "[19]": {"tested_on": "MOLT-4 leukemia"}, "[20]": {"tested_on": "786-0 renal"}, "[21]": {"tested_on": "A498 renal"}, "[22]": {"tested_on": "PC-3 prostate"}, "[23]": {"tested_on": "MCF7 breast"}, "[24]": {"tested_on": "HCT-116 colon"}, "[25]": {"tested_on": "HCC-2998 colon"}, "[26]": {"tested_on": "SNB-75 CNS"}, "[27]": {"tested_on": "COLO 205 colon"}, "[28]": {"tested_on": "IGROV1 ovarian"}, "[29]": {"tested_on": "NCI-H522 lung"}, "[30]": {"tested_on": "SW-620 colon"}, "[31]": {"tested_on": "CAKI-1 renal"}, "[32]": {"tested_on": "MDA-N"}, "[33]": {"tested_on": "DU-145 prostate"}, "[34]": {"tested_on": "T-47D breast"}, "[35]": {"tested_on": "SR leukemia"}, "[36]": {"tested_on": "OVCAR-5 ovarian"}, "[37]": {"tested_on": "HOP-62 NSCLC"}, "[38]": {"tested_on": "HL-60(TB) leukemia"}, "[39]": {"tested_on": "SF-268 CNS"}, "[40]": {"tested_on": "NCI/ADR-RES ovarian"}, "[41]": {"tested_on": "RPMI-8226 leukemia"}, "[42]": {"tested_on": "HS 578T breast"}, "[43]": {"tested_on": "SK-MEL-28 melanoma"}, "[44]": {"tested_on": "CCRF-CEM leukemia"}, "[45]": {"tested_on": "OVCAR-8 ovarian"}, "[46]": {"tested_on": "EKVX NSCLC"}, "[47]": {"tested_on": "SK-OV-3 ovarian"}, "[48]": {"tested_on": "KM12 colon"}, "[49]": {"tested_on": "NCI-H23 lung"}, "[50]": {"tested_on": "SK-MEL-2 melanoma"}, "[51]": {"tested_on": "A549 NSCLC"}, "[52]": {"tested_on": "UACC-62 melanoma"}, "[53]": {"tested_on": "SF-539 CNS"}, "[54]": {"tested_on": "UACC-257 melanoma"}, "[55]": {"tested_on": "OVCAR-4 ovarian"}, "[56]": {"tested_on": "UO-31 renal"}, "[57]": {"tested_on": "NCI-H226 lung"}, "[58]": {"tested_on": "SNB-19 CNS"}}, "note": "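These data come from cells grown in 96-well plates and exposed to compound for 48 hours at five concentrations. TGI: concentration producing complete growth inhibition.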", "data": [{"smiles": "Cc1cccc2c1C(=O)[C@](C)([C@]1(C)Nc3cccc(C)c3C1=O)N2", "values": [{"measurement": "TGI", "setting": "[1]", "value": 75.7, "unit": "µM"}, {"measurement": "TGI", "setting": "[2]", "value": "> 100", "unit": "µM"}, {"measurement": "TGI", "setting": "[3]", "value": "> 100", "unit": "µM"}, {"measurement": "TGI", "setting": "[4]", "value": "> 100", "unit": "µM"}, {"measurement": "TGI", "setting": "[5]", "value": 68.9, "unit": "µM"}, {"measurement": "TGI", "setting": "[6]", "value": 83.3, "unit": "µM"}, {"measurement": "TGI", "setting": "[7]", "value": "> 100", "unit": "µM"}, {"measurement": "TGI", "setting": "[8]", "value": "> 100", "unit": "µM"}, {"measurement": "TGI", "setting": "[9]", "value": "> 100", "unit": "µM"}, {"measurement": "TGI", "setting": "[10]", "value": "> 100", "unit": "µM"}, {"measurement": "TGI", "setting": "[11]", "value": 35.7, "unit": "µM"}, {"measurement": "TGI", "setting": "[12]", "value": "> 100", "unit": "µM"}, {"measurement": "TGI", "setting": "[13]", "value": "> 100", "unit": "µM"}, {"measurement": "TGI", "setting": "[14]", "value": "> 100", "unit": "µM"}, {"measurement": "TGI", "setting": "[15]", "value": "> 100", "unit": "µM"}, {"measurement": "TGI", "setting": "[16]", "value": 62.5, "unit": "µM"}, {"measurement": "TGI", "setting": "[17]", "value": "> 100", "unit": "µM"}, {"measurement": "TGI", "setting": "[18]", "value": "> 100", "unit": "µM"}, {"measurement": "TGI", "setting": "[19]", "value": 72.6, "unit": "µM"}, {"measurement": "TGI", "setting": "[20]", "value": "> 100", "unit": "µM"}, {"measurement": "TGI", "setting": "[21]", "value": "> 100", "unit": "µM"}, {"measurement": "TGI", "setting": "[22]", "value": "> 100", "unit": "µM"}, {"measurement": "TGI", "setting": "[23]", "value": "> 100", "unit": "µM"}, {"measurement": "TGI", "setting": "[24]", "value": "> 100", "unit": "µM"}, {"measurement": "TGI", "setting": "[25]", "value": "> 100", "unit": "µM"}, {"measurement": "TGI", "setting": "[26]", "value": 41.2, "unit": "µM"}, {"measurement": "TGI", "setting": "[27]", "value": 44.6, "unit": "µM"}, {"measurement": "TGI", "setting": "[28]", "value": "> 100", "unit": "µM"}, {"measurement": "TGI", "setting": "[29]", "value": 80.9, "unit": "µM"}, {"measurement": "TGI", "setting": "[30]", "value": "> 100", "unit": "µM"}, {"measurement": "TGI", "setting": "[31]", "value": 69.2, "unit": "µM"}, {"measurement": "TGI", "setting": "[32]", "value": 63, "unit": "µM"}, {"measurement": "TGI", "setting": "[33]", "value": "> 100", "unit": "µM"}, {"measurement": "TGI", "setting": "[34]", "value": 87.9, "unit": "µM"}, {"measurement": "TGI", "setting": "[35]", "value": 93.5, "unit": "µM"}, {"measurement": "TGI", "setting": "[36]", "value": 58, "unit": "µM"}, {"measurement": "TGI", "setting": "[37]", "value": 84.9, "unit": "µM"}, {"measurement": "TGI", "setting": "[38]", "value": 0.54, "unit": "µM"}, {"measurement": "TGI", "setting": "[39]", "value": 55.8, "unit": "µM"}, {"measurement": "TGI", "setting": "[40]", "value": "> 100", "unit": "µM"}, {"measurement": "TGI", "setting": "[41]", "value": 53.7, "unit": "µM"}, {"measurement": "TGI", "setting": "[42]", "value": 67.8, "unit": "µM"}, {"measurement": "TGI", "setting": "[43]", "value": "> 100", "unit": "µM"}, {"measurement": "TGI", "setting": "[44]", "value": 48.3, "unit": "µM"}, {"measurement": "TGI", "setting": "[45]", "value": 72.8, "unit": "µM"}, {"measurement": "TGI", "setting": "[46]", "value": 71.7, "unit": "µM"}, {"measurement": "TGI", "setting": "[47]", "value": 76.6, "unit": "µM"}, {"measurement": "TGI", "setting": "[48]", "value": "> 100", "unit": "µM"}, {"measurement": "TGI", "setting": "[49]", "value": 77.4, "unit": "µM"}, {"measurement": "TGI", "setting": "[50]", "value": 69.2, "unit": "µM"}, {"measurement": "TGI", "setting": "[51]", "value": "> 100", "unit": "µM"}, {"measurement": "TGI", "setting": "[52]", "value": "> 100", "unit": "µM"}, {"measurement": "TGI", "setting": "[53]", "value": 74.9, "unit": "µM"}, {"measurement": "TGI", "setting": "[54]", "value": "> 100", "unit": "µM"}, {"measurement": "TGI", "setting": "[55]", "value": "> 100", "unit": "µM"}, {"measurement": "TGI", "setting": "[56]", "value": 51.8, "unit": "µM"}, {"measurement": "TGI", "setting": "[57]", "value": "> 100", "unit": "µM"}, {"measurement": "TGI", "setting": "[58]", "value": "> 100", "unit": "µM"}]}]}
